Experimental data taken from PMC2527810, “[^18F]FDG and [^18F]FLT uptake in human breast cancer cells in relation to the effects of chemotherapy: an in vitro study” (British Journal of Cancer, 2008).

Legend:
[1] = tested on: MDA MB231 cells; experiment: Cell cycle analysis after exposure to IC50 drug concentrations; assay type: cell-based, human; conditions: for cell cycle effect (in words): at IC50 concentrations
Protocol: For cell cycle analysis, cells were exposed to IC50 concentrations of the various drugs for 4, 24, 48 or 72 h, fixed in 70% ethanol (1 × 10^6 cells per ml) and stored at 4°C until analysis, as described previously ([Temmink et al, 2007]) according to a slightly modified protocol.

[2] = tested on: TK-1 protein levels of MDA MB231 cells; experiment: TK-1 protein levels by Western blot; conditions: for increase in TK-1 levels compared with untreated cells: abstract, time not stated
[3] = tested on: MDA MB231 cells; experiment: Cellular FDG uptake after drug incubation; assay type: cell-based, human; conditions: IC50 concentration
Protocol: (§1) Cells were plated in six identical 24-well plates at 75 000 cells per ml. […] Control cells were plated in a concentration of 45 000 cells per ml, 4 days before tracer uptake. Cell culture medium was replaced 4 h before adding PET tracers. For FDG plates, medium was replaced with medium without glucose (+IC50 drugs concentration), as glucose competes with FDG uptake. For FLT plates, medium was replaced with medium without L-glutamine (+IC50 drugs concentration). The presence of L-glutamine in the culture medium may reduce FLT uptake, as glutamine is a source of thymidine monophosphate competing with FLT uptake through the de novo pathway.
(§2) One MBq per well FDG or FLT was added to the cells and incubated for 60 min at 37°C. After removal of excess tracer, cellular tracer uptake was determined with an ECAT Exact HR+ PET scanner (Siemens/CTI, Knoxville, TN, USA). Images were analysed using CAPP software (version 7.2, CTI/Siemens, Knoxville, TN, USA). Regions of interest (ROI) were drawn manually in a plane with visible tracer uptake. Next, ROIs were copied to all other planes and total activity per well was calculated and plotted against exact number of cells. Tracer uptake was also determined in an identical plate using the single-well gamma counter. Tracer uptake was corrected for the number of cells.

[4] = tested on: MDA MB231 cells; experiment: Cellular FLT uptake after drug incubation; assay type: cell-based, human; conditions: IC50 concentration
Protocol: as §1, §2

[5] = tested on: Thymidine kinase (TK) activity in MDA MB231 breast cancer cells; experiment: TK enzyme activity (FLT phosphorylation) in lysates of drug-treated cells; assay type: cell-based, human; conditions: IC50 concentration; for TK activity compared with untreated cells (in words): 48 and 72 h, effects minor
Protocol: . Enzyme activity was also analysed in CEM cells and in the corresponding TK-1-deficient subtype to assess whether FLT phosphorylation only occurs in the presence of sufficient cytosolic TK-1.
Cell pellets were suspended in 50 mM Tris/1 mM EDTA (pH 7.4) and sonificated on ice. Lysates were spun down and supernatant diluted 1 : 8 in 50 mM Tris/1 mM EDTA (pH 7.4).
3′-deoxy-3′-[^18F]fluorothymidine was diluted with 50 mM Tris/1 mM EDTA (pH 7.4) and 1 : 1 mixed with 20 mM ATP, 10 mM MgCl2, resulting in an FLT concentration of about 60 MBq ml^−1 (6.32–18.89 pmol per sample). […] .
The assay was optimised for protein concentration and incubation times. Diluted cell lysates or purified TK-2 (kindly provided by A. Karlsson, Karolinska Institute, Stockholm, Sweden) were incubated with the FLT mixture for 15 min at 37°C and the reaction was stopped by heating the samples at 95°C for 5 min. Substrate (FLT) and product (FLT-phosphate) were separated by TLC and radioactivity was measured in a single-well gamma counter (Wallac1480 Wizard, Perkin Elmer Lifescience, MA, USA). Protein concentrations were measured in a Bio-Rad Bradford protein assay (Bio-Rad Laboratories, Hercules, CA, USA).

[6] = tested on: MDA MB231 cells; experiment: Cytotoxicity by sulforhodamine (SRB) assay; assay type: cell-based; conditions: Homo sapiens, MDA-MB-231, 72 h drug incubation, read-out: IC50 (50% reduction in growth)
Protocol: The human breast cancer cell line MDA MB231 (ATCC no. HTB-26) and CEM leukaemia cells (CEM wild type and TK-deficient CEM/TK-) were cultured in RPMI 1640 supplemented with 10% foetal bovine serum and 1% penicillin/streptomycin (P/S), at 5% CO2 in a humidified atmosphere at 37°C. Cell counting was performed with a Casy cell counter (Schärfe System GmbH, Reutlingen, Germany).
Cytotoxicity to 5-FU (Sigma Chemical Co., MO, St Louis, USA), doxorubicin (doxorubicin hydrochloride, Pfizer, Cappelle a/d IJssel, The Netherlands) and paclitaxel (Sigma Chemical Co.) was determined by sulforhodamine (SRB) assay. Briefly, cells were plated in 96-well plates and after 24 h, drugs were added at various concentrations, incubated for 72 h and the SRB assay was performed as described previously ([de Bruin et al, 2003]). The IC50 is the concentration resulting in 50% reduction in growth compared with untreated control cells.

[7] = 48 h incubation, IC50 concentration

SMILES: O=c1[nH]cc(F)c(=O)[nH]1 [5-FU, 5-fluorouracil]
- cell cycle effect (in words) [1]: accumulation in the G1 phase
- Mean (±s.d.) change in TK-1 protein levels compared with untreated cells (set to 100%) ([2]; 4 h, IC50 concentration): 163±1%
- Mean (±s.d.) change in TK-1 protein levels compared with untreated cells (set to 100%) ([2]; 24 h, IC50 concentration): 122±38%
- Mean (±s.d.) change in TK-1 protein levels compared with untreated cells (set to 100%) ([2]; 48 h, IC50 concentration): 184±53%
- Mean (±s.d.) change in TK-1 protein levels compared with untreated cells (set to 100%) ([2]; 72 h, IC50 concentration): 443±58%
- increase in TK-1 levels compared with untreated cells [2]: > 300
- increase in TK-1 levels ([2]; at 48 h, IC50 concentration): two-fold
- Mean (±s.d.) change in FDG uptake compared with untreated cells (set to 100%) ([3]; 4 h): 67±2%
- Mean (±s.d.) change in FDG uptake compared with untreated cells (set to 100%) ([3]; 24 h): 70±13%
- Mean (±s.d.) change in FDG uptake compared with untreated cells (set to 100%) ([3]; 48 h): 69±21%
- Mean (±s.d.) change in FDG uptake compared with untreated cells (set to 100%) ([3]; 72 h): 45±20%
- decrease in FDG uptake ([3]; 72 h, listed as 5-fluorouracil): approximately 50%
- Mean (±s.d.) change in FLT uptake compared with untreated cells (set to 100%) ([4]; 4 h): 99±45%
- Mean (±s.d.) change in FLT uptake compared with untreated cells (set to 100%) ([4]; 24 h): 113±7%
- Mean (±s.d.) change in FLT uptake compared with untreated cells (set to 100%) ([4]; 48 h): 101±8%
- Mean (±s.d.) change in FLT uptake compared with untreated cells (set to 100%) ([4]; 72 h): 46±32%
- decrease in FLT uptake ([4]; 72 h): 54%
- decrease in FLT uptake ([4]; 72 h, listed as 5-fluorouracil): approximately 50%
- TK activity compared with untreated cells (in words) [5]: increased TK activity
- IC50 [6]: 5000 nM

SMILES: COc1cccc2c1C(=O)c1c(O)c3c(c(O)c1C2=O)C[C@@](O)(C(=O)CO)C[C@@H]3O[C@H]1C[C@H](N)[C@H](O)[C@H](C)O1 [doxorubicin]
- decrease in G1 phase [1, 7]: 90%
- decrease in S phase [1, 7]: 70%
- accumulation in the G2/M phase ([1]; 48 h incubation, IC50 concentration, vs control cells): two-fold
- cell cycle effect (in words) [1]: G2/M accumulation
- Mean (±s.d.) change in TK-1 protein levels compared with untreated cells (set to 100%) ([2]; 4 h, IC50 concentration): 64±6%
- Mean (±s.d.) change in TK-1 protein levels compared with untreated cells (set to 100%) ([2]; 24 h, IC50 concentration): 130±78%
- Mean (±s.d.) change in TK-1 protein levels compared with untreated cells (set to 100%) ([2]; 48 h, IC50 concentration): 177±71%
- Mean (±s.d.) change in TK-1 protein levels compared with untreated cells (set to 100%) ([2]; 72 h, IC50 concentration): 473±348%
- increase in TK-1 levels compared with untreated cells [2]: > 300
- increase in TK-1 levels ([2]; at 48 h, IC50 concentration): two-fold
- Mean (±s.d.) change in FDG uptake compared with untreated cells (set to 100%) ([3]; 4 h): 57±35%
- Mean (±s.d.) change in FDG uptake compared with untreated cells (set to 100%) ([3]; 24 h): 124±59%
- Mean (±s.d.) change in FDG uptake compared with untreated cells (set to 100%) ([3]; 48 h): 133±45%
- Mean (±s.d.) change in FDG uptake compared with untreated cells (set to 100%) ([3]; 72 h): 171±0%
- increase in FDG uptake ([3]; 72 h): 71%
- increase in FDG uptake ([3]; at 24, 48 and 72 h): > 24%
- Mean (±s.d.) change in FLT uptake compared with untreated cells (set to 100%) ([4]; 4 h): 123±83%
- Mean (±s.d.) change in FLT uptake compared with untreated cells (set to 100%) ([4]; 24 h): 137±52%
- Mean (±s.d.) change in FLT uptake compared with untreated cells (set to 100%) ([4]; 48 h): 494±232%
- Mean (±s.d.) change in FLT uptake compared with untreated cells (set to 100%) ([4]; 72 h): 273±209%
- increase in FLT uptake ([4]; 72 h): 173%
- increase in FLT uptake ([4]; irrespective of incubation time): > 24%
- increase in TK activity compared with untreated cells ([5]; after 24 h): more than three-fold
- IC50 [6]: 200 nM

SMILES: CC(=O)O[C@H]1C(=O)[C@@]2(C)[C@H]([C@H](OC(=O)c3ccccc3)[C@]3(O)C[C@H](OC(=O)[C@H](O)[C@@H](NC(=O)c4ccccc4)c4ccccc4)C(C)=C1C3(C)C)[C@]1(OC(C)=O)CO[C@@H]1C[C@@H]2O [paclitaxel]
- increase in G2/M phase ([1]; 4 h drug incubation, IC50 concentration): 1.2 fold
- cell cycle effect (in words) [1]: G2/M accumulation
- Mean (±s.d.) change in TK-1 protein levels compared with untreated cells (set to 100%) ([2]; 4 h, IC50 concentration): 103±6%
- Mean (±s.d.) change in TK-1 protein levels compared with untreated cells (set to 100%) ([2]; 24 h, IC50 concentration): 62±4%
- Mean (±s.d.) change in TK-1 protein levels compared with untreated cells (set to 100%) ([2]; 48 h, IC50 concentration): 54±16%
- Mean (±s.d.) change in TK-1 protein levels compared with untreated cells (set to 100%) ([2]; 72 h, IC50 concentration): 52±32%
- decrease in TK-1 levels ([2]; at 48 h, IC50 concentration): > 40%
- Mean (±s.d.) change in FDG uptake compared with untreated cells (set to 100%) ([3]; 4 h): 105±41%
- Mean (±s.d.) change in FDG uptake compared with untreated cells (set to 100%) ([3]; 24 h): 125±99%
- Mean (±s.d.) change in FDG uptake compared with untreated cells (set to 100%) ([3]; 48 h): 207±163%
- Mean (±s.d.) change in FDG uptake compared with untreated cells (set to 100%) ([3]; 72 h): 228±182%
- increase in FDG uptake ([3]; after 48 h (at 48 and 72 h)): > 100%
- Mean (±s.d.) change in FLT uptake compared with untreated cells (set to 100%) ([4]; 4 h): 108±2%
- Mean (±s.d.) change in FLT uptake compared with untreated cells (set to 100%) ([4]; 24 h): 112±54%
- Mean (±s.d.) change in FLT uptake compared with untreated cells (set to 100%) ([4]; 48 h): 118±14%
- Mean (±s.d.) change in FLT uptake compared with untreated cells (set to 100%) ([4]; 72 h): 166±18%
- increase in FLT uptake ([4]; 72 h): 66%
- FLT uptake change (in words) ([4]; abstract): hardly changed
- TK activity compared with untreated cells (in words) [5]: increased TK activity
- IC50 [6]: 2.5 nM
